This note sets out measurements from patent publication US5464861A, “2-thioindoles (selenoindoles) and related disulfides (selenides) which inhibit protein tyrosine kinases and which have antitumor properties” (Warner-Lambert, priority 1993, dated 1995).

Read-outs that look alike come from different tables or passages of the source.

Assay [1] addresses T1, epidermal growth factor receptor tyrosine kinase (Homo sapiens, UniProt P00533).
T1 construct: A native 170,000 epidermal growth factor receptor-kinase complex from shed plasma membrane vesicles; endogenous in cells
Description: EGF receptor tyrosine kinase assay (P^32 incorporation in GAT). The format is biochemical. Particulars: for inhibition at 100 µM: EGRF-R, read-out: % Inhibition at 100 μM (EGFR TK). As for the experimental part: At the time of assay, membranes were solubilized in 4% Triton X-100 and glycerol. The reaction is carried out in wells of a 96-well microtiter plate in a total volume of […]. Buffer containing 20 mMHepes (pH 7.4), 15 mMMgCl2, mM MnCl2, and 0.02% BSA followed by […] of membrane protein and 150 ng of epidermal growth factor. The plates are incubated for 10 minutes at room temperature to activate the receptor kinase. […] ATP plus or minus compound are added and incubated 10 minutes at room temperature.

The target in assay [2] is T2, human PDGF β receptor intracellular tyrosine kinase domain (Homo sapiens, UniProt P09619).
T2 construct: human PDGF β receptor intracellular tyrosine kinase domain; made in house; host or cells: SF9 insect cells, recombinant baculovirus; cell lysates used
Kind of assay: PDGF receptor tyrosine kinase inhibition assay (P^32 incorporation in Glu-Tyr). The format is biochemical. Particulars: for inhibition at 100 µM: read-out: % Inhibition at 100 μM (PDGFR TK); for IC50: Table 2, PDGF-R, IC50 entries, read-out: IC50 (PDGFR TK).
Description: Recombinant baculovirus containing human PDGF β receptor intracellular tyrosine kinase domain was used to infect SF9 cells to overexpress the protein, and cell lysates were used for the assay. The ability of the tyrosine kinase to phosphorylate glutamate tyrosine substrate in the presence of P^32 -ATP and inhibitor was measured by counting the incorporation of P^32 in Glu-Tyr in TCAprecipitable material.

The test system of assay [3] is Swiss 3T3 mouse fibroblasts. Kind of assay: Growth inhibition assay, Swiss 3T3 fibroblasts. The format is cell-based. The note with it: Swiss-3T3, 72 h, read-out: IC50 growth inhibition.
Description: Swiss 3T3 mouse fibroblasts were maintained in dMEM/F12 media containing 10% fetal calf serum. […] The cells were grown at 37° C. under 5% CO2 for 72 hours and then counted by Coulter counter. The data were expressed as the concentration of inhibitor necessary to decrease the growth rate by 50%.
The mark [4] stands for this setting: Table 2, EGRF-R, IC50 entries, read-out: IC50 (EGFR TK).

T2 sequence (P09619 554-1106 limits assumed): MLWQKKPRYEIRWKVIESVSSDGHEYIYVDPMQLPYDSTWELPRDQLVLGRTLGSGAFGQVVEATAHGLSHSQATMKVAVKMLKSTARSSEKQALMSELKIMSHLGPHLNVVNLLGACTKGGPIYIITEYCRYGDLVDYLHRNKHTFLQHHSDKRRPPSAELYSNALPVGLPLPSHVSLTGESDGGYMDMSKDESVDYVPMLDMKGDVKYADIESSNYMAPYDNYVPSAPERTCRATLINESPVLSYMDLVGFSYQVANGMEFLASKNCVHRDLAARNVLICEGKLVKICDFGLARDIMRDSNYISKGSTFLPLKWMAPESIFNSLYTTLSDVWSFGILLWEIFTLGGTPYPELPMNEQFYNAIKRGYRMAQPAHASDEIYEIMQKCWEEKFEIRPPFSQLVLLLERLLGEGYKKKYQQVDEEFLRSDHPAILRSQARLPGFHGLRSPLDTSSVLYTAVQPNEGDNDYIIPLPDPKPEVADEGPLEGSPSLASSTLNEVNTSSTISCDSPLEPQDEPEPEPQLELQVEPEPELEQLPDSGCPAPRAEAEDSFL
T1 sequence (P00533 25-1210): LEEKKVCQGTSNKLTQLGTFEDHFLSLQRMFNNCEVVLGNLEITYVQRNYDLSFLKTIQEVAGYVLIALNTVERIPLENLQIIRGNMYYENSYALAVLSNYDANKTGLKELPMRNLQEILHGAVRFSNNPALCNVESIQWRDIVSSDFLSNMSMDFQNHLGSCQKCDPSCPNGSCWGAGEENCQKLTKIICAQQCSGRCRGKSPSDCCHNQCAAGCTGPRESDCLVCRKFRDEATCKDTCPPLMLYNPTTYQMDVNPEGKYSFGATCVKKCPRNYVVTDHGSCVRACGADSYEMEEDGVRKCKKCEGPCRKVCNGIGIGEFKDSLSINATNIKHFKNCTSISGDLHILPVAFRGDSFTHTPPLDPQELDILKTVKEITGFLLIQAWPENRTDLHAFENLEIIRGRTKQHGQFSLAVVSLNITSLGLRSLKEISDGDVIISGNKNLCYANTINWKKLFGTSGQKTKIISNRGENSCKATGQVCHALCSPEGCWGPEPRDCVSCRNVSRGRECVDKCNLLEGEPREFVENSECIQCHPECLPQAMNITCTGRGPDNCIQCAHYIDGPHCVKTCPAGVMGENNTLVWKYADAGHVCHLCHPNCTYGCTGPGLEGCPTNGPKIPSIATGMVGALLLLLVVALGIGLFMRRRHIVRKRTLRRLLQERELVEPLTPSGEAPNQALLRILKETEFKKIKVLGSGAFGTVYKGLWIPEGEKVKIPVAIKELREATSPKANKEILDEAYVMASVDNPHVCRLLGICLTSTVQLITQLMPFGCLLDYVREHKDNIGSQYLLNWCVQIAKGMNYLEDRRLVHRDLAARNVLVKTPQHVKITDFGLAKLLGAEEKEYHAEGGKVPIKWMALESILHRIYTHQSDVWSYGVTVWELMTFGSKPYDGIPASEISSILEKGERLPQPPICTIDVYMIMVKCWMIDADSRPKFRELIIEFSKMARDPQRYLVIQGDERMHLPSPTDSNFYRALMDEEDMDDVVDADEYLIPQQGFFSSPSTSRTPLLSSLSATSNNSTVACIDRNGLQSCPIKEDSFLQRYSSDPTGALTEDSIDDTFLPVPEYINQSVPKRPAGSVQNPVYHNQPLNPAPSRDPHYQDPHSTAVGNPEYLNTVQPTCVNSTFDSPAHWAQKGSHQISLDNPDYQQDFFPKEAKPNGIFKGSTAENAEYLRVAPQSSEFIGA
T1 sequence (P01133 971-1023 partner limits assumed): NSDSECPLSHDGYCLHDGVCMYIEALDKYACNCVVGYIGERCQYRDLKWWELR

The IC50 is the point on the concentration scale where inhibition reaches its midpoint. One may read the inhibition as the drop in the measured response relative to a control, in per cent. Consider `O=C(CC1C(=S)Nc2ccccc21)NCc1ccccc1` (stereo not drawn) [Compound 6, N-benzyl (2-thioxo-3-indolinyl) acetamide], for which the half-inhibitory concentration (IC50) in assay [1] (setting [4]) turned out to be 25 µM. Besides, the inhibition at 100 µM in assay [2] (at 100 μM, PDGF-R) was found to be 8.5%. `COC(=O)CCCC1C(=S)N(C)c2ccccc21` (stereo not drawn) [Compound 18, methyl 4-(1-methyl-2-thioxo-3-indolyl)butanoate]: the inhibition at 100 µM was found to be 2% in assay [1] and 9% in assay [2] (at 100 μM, PDGF-R).

Regarding `N#CCc1c(SSc2[nH]c3ccccc3c2CC#N)[nH]c2ccccc12` [Compound 35, 2,2'-dithiobis[3-indolylacetonitrile]], the half-maximal inhibitory concentration (IC50) in assay [1] (setting [4]) came to 16.5 µM. The inhibition at 100 µM in assay [2] (at 100 μM, PDGF-R) was 33.9%. Regarding `NC(=O)CCc1c(SSc2[nH]c3ccccc3c2CCC(N)=O)[nH]c2ccccc12` [Compound 50], the IC50 in assay [1] (setting [4]) was 16 µM. Besides, the inhibition at 100 µM in assay [2] (at 100 μM, PDGF-R) came to 62.6%. Turning to `CONC(=O)CCc1c(SSc2[nH]c3ccccc3c2CCC(=O)NOC)[nH]c2ccccc12` [Compound 52], the half-maximal inhibitory concentration (IC50) in assay [1] (setting [4]) came out at 68.2 µM. In assay [2] (at 100 μM, PDGF-R), the inhibition at 100 µM worked out at 18.3%. Regarding `O=C(CCc1c(SSc2[nH]c3ccccc3c2CCC(=O)NCCc2ccccc2)[nH]c2ccccc12)NCCc1ccccc1` [Compound 54, 2,2'-dithiobis[N-(2-phenylethyl) -3-(3-indolyl)propanamide]], the half-maximal inhibitory concentration (IC50) in assay [1] (setting [4]) turned out to be 29 µM. Besides, the inhibition at 100 µM in assay [2] (at 100 μM, PDGF-R) was 20.6%. As for `O=C(CCc1c(SSc2[nH]c3ccccc3c2CCC(=O)NCc2ccc(C(=O)O)cc2)[nH]c2ccccc12)NCc1ccc(C(=O)O)cc1` [Compound 56, 2,2'-dithiobis[N-(4-carboxybenzyl)-3-(3-indolyl)propanamide]], the IC50 in assay [1] (setting [4]) is 7.3 µM. Also, in assay [2] (at 100 μM, PDGF-R), the inhibition at 100 µM amounted to 44.5%. `COC(=O)c1ccc(CNC(=O)CCc2c(SSc3[nH]c4ccccc4c3CCC(=O)NCc3ccc(C(=O)OC)c(O)c3)[nH]c3ccccc23)cc1O` [Compound 57]: the inhibition at 100 µM was determined as 46% in assay [1] and 14.5% in assay [2] (at 100 μM, PDGF-R). For `O=C(CCc1c(SSc2[nH]c3ccccc3c2CCC(=O)Nc2ccccc2)[nH]c2ccccc12)Nc1ccccc1` [Compound 59], the IC50 in assay [1] (setting [4]) came out at 30.5 µM. Also, the inhibition at 100 µM in assay [2] (at 100 μM, PDGF-R) stood at 11.4%. For the molecule `COC(=O)CCCc1c(SSc2[nH]c3ccccc3c2CCCC(=O)OC)[nH]c2ccccc12` [Compound 67, bis[methylindolyl-3-butanoate-(2)]-disulfide], the inhibition at 100 µM in assay [1] is 18%; in assay [2] (at 100 μM, PDGF-R) it was 2%. The like results for `O=C(CCCc1c(SSc2[nH]c3ccccc3c2CCCC(=O)NCc2ccccc2)[nH]c2ccccc12)NCc1ccccc1` [Compound 69] were, in that order, 55.6% and 8.9%. For `Cn1c(SSc2c(C(=O)Nc3ccccc3)c3c(Cl)cccc3n2C)c(C(=O)Nc2ccccc2)c2c(Cl)cccc21` [Compound 72, bis[N-phenyl 4-chloro-1-methylindolyl-3-carboxamide-(2)] disulfide], the inhibition at 100 µM is 47% in assay [1] and 22% in assay [2] (at 100 μM, PDGF-R). The corresponding values for `Cc1ccc2c(C(=O)Nc3ccccc3)c(SSc3c(C(=O)Nc4ccccc4)c4ccc(C)cc4n3C)n(C)c2c1` [Compound 77, bis [N-phenyl 1,6-dimethylindolyl-3-carboxamide-(2)]disulfide] are 9% and 1%. Regarding `Cc1cccc2c(C(=O)Nc3ccccc3)c(SSc3c(C(=O)Nc4ccccc4)c4cccc(C)c4n3C)n(C)c12` [Compound 78, bis [N-phenyl 1,7-dimethyl indolyl-3-carboxamide-(2)]disulfide], the inhibition at 100 µM turned out to be 27% in assay [1] and 7% in assay [2] (at 100 μM, PDGF-R). For the molecule `COc1ccc2c(c1)c(C(=O)Nc1ccccc1)c(SSc1c(C(=O)Nc3ccccc3)c3cc(OC)ccc3n1C)n2C` [Compound 80, bis[N-phenyl 5-methoxy-1-methylindolyl-3-carboxamide-(2)]disulfide], the inhibition at 100 µM turned out to be 0% in assay [1] and 16% in assay [2] (at 100 μM, PDGF-R). The like results for `Cn1c(SSc2c(C(=O)Nc3ccccc3)c3cc(C(F)(F)F)ccc3n2C)c(C(=O)Nc2ccccc2)c2cc(C(F)(F)F)ccc21` [Compound 84, 2,2-dithiobis [N-phenyl-1-methyl-5-(trifluoro-methyl)indolyl-3-carboxamide]] were, in that order, 35% and 22%.

For `Cn1c(SSc2c(C(=O)Nc3ccccc3)c3ccc(Cl)cc3n2C)c(C(=O)Nc2ccccc2)c2ccc(Cl)cc21` [Compound 85, bis[N-phenyl 6-chloro-1-methylindolyl-3-carboxamide-(2)]disulfide], the inhibition at 100 µM in assay [1] worked out at 8%; in assay [2] (at 100 μM, PDGF-R) it was 7%. As to `Cn1c(SSc2c(C(=O)Nc3ccccc3)c3cc([N+](=O)[O-])ccc3n2C)c(C(=O)Nc2ccccc2)c2cc([N+](=O)[O-])ccc21` [Compound 86, 2,2'-dithiobis [N-phenyl-1-methyl-5-nitroindolyl-3-carboxamide]], in assay [1], the IC50 came out at 4.9 µM. Also, the inhibition at 100 µM in assay [2] amounted to 5%. In the case of `Cn1c(SSc2c(C(=O)Nc3ccccc3)c3cc(F)ccc3n2C)c(C(=O)Nc2ccccc2)c2cc(F)ccc21` [Compound 87, 2,2'-dithiobis [N-phenyl-5-fluoro-1-methylindolyl-3-carboxamide]], the inhibition at 100 µM is 34% in assay [1] and 44% in assay [2] (at 100 μM, PDGF-R). As for `Cn1c(SSc2c(C(=O)Nc3ccccc3)c3cc(C#N)ccc3n2C)c(C(=O)Nc2ccccc2)c2cc(C#N)ccc21` [Compound 88, 2,2'-dithiobis[N-phenyl-5-cyano-1-methylindolyl-3-carboxamide]], in assay [1] (setting [4]), the IC50 is 54 µM. Further, in assay [2] (at 100 μM, PDGF-R), the inhibition at 100 µM worked out at 51%. For the molecule `Cn1c(SSc2c(C(=O)Nc3ccccc3)c3cc(Br)ccc3n2C)c(C(=O)Nc2ccccc2)c2cc(Br)ccc21` [Compound 89, 2,2'-dithiobis[N-phenyl-5-bromo-1-methylindolyl-3-carboxamide]], in assay [1] (setting [4]), the IC50 was found to be 11.4 µM. Further, the inhibition at 100 µM in assay [2] (at 100 μM, PDGF-R) came out at 3%. As to `CC(=O)Oc1cccc2c1c(C(=O)Nc1ccccc1)c(SSc1c(C(=O)Nc3ccccc3)c3c(OC(C)=O)cccc3n1C)n2C` [Compound 90, 2,2'-dithiobis [N-phenyl 4-acetoxy-1-methylindolyl-3-carboxamide]], the values for the IC50 in assay [1] (setting [4]) and in assay [2] were 26 µM and 36.5 µM, respectively. Turning to `Cn1c(SSc2c(C(=O)Nc3ccc(C(=O)O)cc3)c3ccccc3n2C)c(C(=O)Nc2ccc(C(=O)O)cc2)c2ccccc21` [Compound 105, 2,2'-dithiobis [N-(4'-carboxy)phenyl-1-methylindolyl-3-carboxamide]], the IC50 in assay [1] (setting [4]) was found to be 16.9 µM. Also, the inhibition at 100 µM in assay [2] (at 100 μM, PDGF-R) was determined as 33%. The corresponding values for `Cn1c(SSc2c(C(=O)Nc3ccccc3C(=O)O)c3ccccc3n2C)c(C(=O)Nc2ccccc2C(=O)O)c2ccccc21` [Compound 109, 2,2'-dithiobis[N-(2'-carboxy)phenyl-1-methylindolyl-3-carboxamide]] are 47 µM and 8%. Take `Cn1c(SSc2c(C(=O)NCC(=O)O)c3ccccc3n2C)c(C(=O)NCC(=O)O)c2ccccc21` [Compound 112, 2,2'-dithiobis[N-carboxymethyl1-methylindolyl-3-carboxamide]]: the IC50 in assay [1] (setting [4]) was 10 µM. In assay [2] (at 100 μM, PDGF-R), the inhibition at 100 µM is 69%.

On to `CN(C(=O)c1c(SSc2c(C(=O)N(C)c3ccccc3)c3ccccc3n2C)n(C)c2ccccc12)c1ccccc1` [Compound 113, 2,2 '-dithiobis [N-methyl-N-phenyl-1-methylindolyl-3-carboxamide]], for which the inhibition at 100 µM in assay [1] is 5%; in assay [2] (at 100 μM, PDGF-R), 29%. Take `Cn1c(SSc2c(C(=O)NCC(O)CO)c3ccccc3n2C)c(C(=O)NCC(O)CO)c2ccccc21` (stereo not drawn) [Compound 114, 2,2'-dithiobis [N-(2,3-dihydroxypropyl)-1-methylindolyl-3-carboxamide]]: the IC50 in assay [1] (setting [4]) amounted to 42.9 µM; in assay [2], 7 µM. Consider `Cn1c(SSc2c(C(=O)Nc3ccncc3)c3ccccc3n2C)c(C(=O)Nc2ccncc2)c2ccccc21` [Compound 116, 2,2'-dithiobis[N-(4-pyridyl)-1-methylindolyl-3-carboxamide]], for which the inhibition at 100 µM in assay [1] worked out at 4%. For the same molecule, in assay [2], the concentration for half-maximal inhibition (IC50) was 7.9 µM. Turning to `Cn1c(SSc2c(C(=O)Nc3cccnc3)c3ccccc3n2C)c(C(=O)Nc2cccnc2)c2ccccc21` [Compound 117, 2,2'-dithiobis [N-(3-pyridyl) 1-methylindolyl-3-carboxamide]], the inhibition at 100 µM in assay [1] came to 25%. In addition, the IC50 in assay [2] stood at 4.2 µM.

For `Cn1c(SSc2c(C(N)=O)c3ccccc3n2C)c(C(N)=O)c2ccccc21` [Compound 118, 2,2'-dithiobis[1-methylindolyl-3-carboxamide]], the 50% inhibitory concentration (IC50) in assay [1] (setting [4]) is 4.7 µM. The inhibition at 100 µM in assay [2] (at 100 μM, PDGF-R) amounted to 78%.

As to `CN(C)C(=O)c1c(SSc2c(C(=O)N(C)C)c3ccccc3n2C)n(C)c2ccccc12` [Compound 119, 2,2'-dithiobis[N,N-dimethyl-1-methylindolyl-3-carboxamide]], the IC50 in assay [1] (setting [4]) turned out to be 21.2 µM. Also, in assay [2] (at 100 μM, PDGF-R), the inhibition at 100 µM came to 73%. In the case of `CCN(CC)CCNC(=O)c1c([Se][Se]c2[nH]c3ccccc3c2C(=O)NCCN(CC)CC)[nH]c2ccccc12` [Compound 134, 2,2'-diselenobis [N-[2-(diethylamino)ethyl]-1H-indole-3-carboxamide]], the half-inhibitory concentration (IC50) in assay [3] is 8 µM.
